Structures are written as SMILES.

In experiment [1] the test system is CCNK. The experiment in a line: CCNK degradation (DC50, Dmax). Format: cell-based. As to conditions: for Dmax (%): CCNK degradation.
The target in experiment [2] is CDK12 (Homo sapiens, UniProt Q9NYV4). As to the kind of experiment: Inhibition of cyclin-dependent kinase 12 (% enzyme activity at 1 uM and IC50). The conditions noted are these: for remaining activity at 1 µM: 1 uM compound. Format: biochemical.
In experiment [3] the test system is MDA-MB-231 cell line. As to the kind of experiment: Antiproliferative activity, MDA-MB-231 cell line (GI50). It is filed as cell-based. The conditions noted are these: Homo sapiens.

CDK12, sequence (Q9NYV4 whole entry): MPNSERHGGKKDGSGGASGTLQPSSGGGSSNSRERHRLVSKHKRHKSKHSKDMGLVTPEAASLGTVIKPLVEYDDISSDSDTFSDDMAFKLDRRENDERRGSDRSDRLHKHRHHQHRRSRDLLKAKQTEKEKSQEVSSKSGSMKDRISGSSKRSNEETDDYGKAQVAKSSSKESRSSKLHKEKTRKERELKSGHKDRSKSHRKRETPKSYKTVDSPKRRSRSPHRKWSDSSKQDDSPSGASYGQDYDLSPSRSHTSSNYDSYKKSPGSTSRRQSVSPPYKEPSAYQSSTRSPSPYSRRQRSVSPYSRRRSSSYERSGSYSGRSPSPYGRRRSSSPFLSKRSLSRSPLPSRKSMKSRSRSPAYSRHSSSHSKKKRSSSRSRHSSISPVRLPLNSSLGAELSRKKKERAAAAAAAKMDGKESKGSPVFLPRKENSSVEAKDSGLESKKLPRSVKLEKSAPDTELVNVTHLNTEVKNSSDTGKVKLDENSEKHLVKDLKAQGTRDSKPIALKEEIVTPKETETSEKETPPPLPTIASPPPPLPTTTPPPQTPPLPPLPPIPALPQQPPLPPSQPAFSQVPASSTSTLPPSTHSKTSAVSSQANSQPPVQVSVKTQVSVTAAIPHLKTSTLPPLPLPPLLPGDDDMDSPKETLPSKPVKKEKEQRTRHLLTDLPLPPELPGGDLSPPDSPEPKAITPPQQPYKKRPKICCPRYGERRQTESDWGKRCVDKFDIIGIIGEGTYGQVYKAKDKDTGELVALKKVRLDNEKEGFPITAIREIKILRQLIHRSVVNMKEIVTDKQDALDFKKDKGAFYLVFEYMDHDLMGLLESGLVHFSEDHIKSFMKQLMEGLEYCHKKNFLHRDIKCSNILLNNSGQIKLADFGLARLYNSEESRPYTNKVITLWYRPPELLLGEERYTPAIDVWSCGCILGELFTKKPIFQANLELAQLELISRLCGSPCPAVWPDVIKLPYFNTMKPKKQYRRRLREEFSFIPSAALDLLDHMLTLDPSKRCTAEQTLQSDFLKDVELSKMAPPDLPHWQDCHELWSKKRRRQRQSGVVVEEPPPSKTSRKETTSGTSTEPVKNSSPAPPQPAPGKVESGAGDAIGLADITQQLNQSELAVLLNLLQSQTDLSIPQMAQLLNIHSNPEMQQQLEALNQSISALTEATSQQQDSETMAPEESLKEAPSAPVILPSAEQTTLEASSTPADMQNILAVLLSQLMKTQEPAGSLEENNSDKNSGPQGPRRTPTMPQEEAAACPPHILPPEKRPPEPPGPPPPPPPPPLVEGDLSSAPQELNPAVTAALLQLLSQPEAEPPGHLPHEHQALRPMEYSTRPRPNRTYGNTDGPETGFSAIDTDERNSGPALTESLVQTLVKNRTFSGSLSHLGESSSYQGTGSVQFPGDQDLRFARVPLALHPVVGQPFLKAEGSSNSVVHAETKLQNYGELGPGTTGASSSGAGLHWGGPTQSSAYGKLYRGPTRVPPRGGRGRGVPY
CDK12, sequence (O75909 whole entry partner): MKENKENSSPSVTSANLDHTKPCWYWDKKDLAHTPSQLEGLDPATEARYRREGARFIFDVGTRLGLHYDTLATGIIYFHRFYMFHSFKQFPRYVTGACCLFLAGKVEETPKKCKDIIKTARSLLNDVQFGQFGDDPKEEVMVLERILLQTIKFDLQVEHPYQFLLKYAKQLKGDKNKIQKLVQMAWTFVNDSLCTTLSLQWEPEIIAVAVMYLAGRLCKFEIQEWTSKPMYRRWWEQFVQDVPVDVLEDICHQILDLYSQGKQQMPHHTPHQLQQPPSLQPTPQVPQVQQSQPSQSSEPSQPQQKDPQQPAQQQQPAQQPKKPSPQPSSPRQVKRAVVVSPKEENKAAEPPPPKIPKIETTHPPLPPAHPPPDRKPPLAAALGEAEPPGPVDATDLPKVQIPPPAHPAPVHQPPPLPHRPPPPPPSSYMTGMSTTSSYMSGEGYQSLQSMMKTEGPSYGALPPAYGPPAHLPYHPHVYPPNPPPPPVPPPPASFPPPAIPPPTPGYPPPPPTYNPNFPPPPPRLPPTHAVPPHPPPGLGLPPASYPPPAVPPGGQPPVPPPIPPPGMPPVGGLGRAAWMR

Regarding `CC(C)n1cc(-c2cnc3c(NCc4nc5c(F)cccc5[nH]4)cc(N4CCN(C)CC4)nn23)cn1` [Cmpd 26, N-((4-fluoro-1H-benzo[d]imidazol-2-yl)methyl)-3-(1-isopropyl-1H-pyrazol-4-yl)-6-(4-methylpiperazin-1-yl) imidazo[1,2-b]pyridazin-8-amine], the half-maximal degradation concentration (DC50) in experiment [1] is 10000 nM. In experiment [2], this compound registered a 50% inhibitory concentration (IC50) of 1110 nM and a remaining activity at 1 µM of 53%. Besides, in experiment [3], halving of growth (GI50) required 6070 nM.
On to `CN1CCN(c2cc(NCc3nc4cc(Cl)c(Cl)cc4[nH]3)c3ncc(-c4cn[nH]c4)n3n2)CC1` [Cmpd 60, N-((5,6-dichloro-1H-benzo[d]imidazol-2-yl)methyl)-6-(4-methylpiperazin-1-yl)-3-(1H-pyrazol-4-yl) imidazo[1,2-b]pyridazin-8-amine], for which, in experiment [1], the half-maximal degradation concentration (DC50) worked out at 1400 nM and the “Dmax (%)” value is recorded as 100%. The compound also gave an IC50 in experiment [2] of 907 nM. Moreover, the GI50 in experiment [3] amounted to 284 nM.
On the same counts, the results for `NC1CCN(c2cc(NCc3nc4cccc(Cl)c4[nH]3)c3ncc(-c4ccsc4)n3n2)CC1` [Cmpd 70, 6-(4-aminopiperidin-1-yl)-N-((7-chloro-1H-benzo[d]imidazol-2-yl)methyl)-3-(thiophen-3-yl) imidazo[1,2-b]pyridazin-8-amine] are 160 nM, 95%, 78 nM and 73 nM.
As for `CN1CCN(c2cc(NCc3nc4c(F)cccc4[nH]3)c3ncc(-c4cnn(C(F)F)c4)n3n2)CC1` [Cmpd 51, 3-(1-(difluoromethyl)-1H-pyrazol-4-yl)-N-((4-fluoro-1H-benzo[d]imidazol-2-yl)methyl)-6-(4-methylpiperazin-1-yl) imidazo[1,2-b]pyridazin-8-amine], in experiment [1], the DC50 was found to be 1900 nM and the “Dmax (%)” value is on record as 50%. In experiment [2], this compound returned a remaining activity at 1 µM of 55%. The GI50 in experiment [3] was found to be 5130 nM.
Turning to `Clc1cccc2nc(CNc3cc(N4CCOCC4)nn4c(-c5ccsc5)cnc34)[nH]c12` [Cmpd 67, N-((7-chloro-1H-benzo[d]imidazol-2-yl)methyl)-6-morpholino-3-(thiophen-3-yl) imidazo[1,2-b]pyridazin-8-amine], in experiment [1], the DC50 stood at 80 nM and the “Dmax (%)” value turned out to be 85%. In addition, in experiment [2], the midpoint of inhibition, the IC50, lay at 300 nM. The compound also returned a GI50 in experiment [3] of 207 nM.
`Cc1cc(-c2cnc3c(NCc4nc5cccc(Cl)c5[nH]4)cc(N4CCOCC4)nn23)cs1` [Cmpd 85, N-((7-chloro-1H-benzo[d]imidazol-2-yl)methyl)-3-(5-methylthiophen-3-yl)-6-morpholinoimidazo[1,2-b]pyridazin-8-amine]: in experiment [1], the DC50 is 1200 nM and the “Dmax (%)” value worked out at 85%. In experiment [2], the remaining activity at 1 µM worked out at 73%. Moreover, growth in experiment [3] was halved (GI50) at 3910 nM.
In turn, `CN1CCN(c2cc(NCc3nc4cc(Cl)c(Cl)cc4[nH]3)c3ncc(-c4cnn(C5CC5)c4)n3n2)CC1` [Cmpd 29, 3-(1-cyclopropyl-1H-pyrazol-4-yl)-N-((5,6-dichloro-1H-benzo[d]imidazol-2-yl)methyl)-6-(4-methylpiperazin-1-yl) imidazo[1,2-b]pyridazin-8-amine] had a DC50 in experiment [1] of 10000 nM. In experiment [2], this compound displayed a remaining activity at 1 µM of 81%. This compound gave a GI50 in experiment [3] of 1120 nM.
Consider `CN1CCN(c2cc(NCc3nc4cc(Cl)c(Cl)cc4[nH]3)c3ncc(-c4cnn(C(F)F)c4)n3n2)CC1(C)C` [Cmpd 49, N-((5,6-dichloro-1H-benzo[d]imidazol-2-yl)methyl)-3-(1-(difluoromethyl)-1H-pyrazol-4-yl)-6-(3,3,4-trimethylpiperazin-1-yl) imidazo[1,2-b]pyridazin-8-amine], for which, in experiment [1], the DC50 stood at 370 nM and the “Dmax (%)” value stood at 95%. Besides, the concentration for 50% growth inhibition (GI50) in experiment [3] was found to be 465 nM.
`CN(C)c1cc(NCc2nc3cccc(Cl)c3[nH]2)c2ncc(-c3ccsc3)n2n1` [Cmpd 73, N8-((7-chloro-1H-benzo[d]imidazol-2-yl)methyl)-N6,N6-dimethyl-3-(thiophen-3-yl) imidazo[1,2-b]pyridazine-6,8-diamine]: 1000 nM corresponded to half-maximal inhibition in experiment [2] (IC50). Moreover, in experiment [3], halving of growth (GI50) required 5000 nM.

A word on the DC50: it is the concentration giving 50% degradation. Low readings indicate degradation at low concentration, high ones degradation only at high concentration. A word on the IC50: it is the concentration that inhibits the measured activity by half. In general, remaining activity refers to the signal under treatment as a percentage of the control signal. Read a low remaining activity as a large loss of activity. By GI50 is commonly meant the concentration giving 50% growth inhibition. A low value points to more potent growth inhibition.

The record behind these values is US20260055114A1, “IMIDAZO[1,2-B]PYRIDAZINE INHIBITORS OF CYCLIN-DEPENDENT KINASES” (H. LEE MOFFITT CANCER CENTER AND RESEARCH INSTITUTE, INC., priority 2022, published 2026).
